Data published in patent US9890138B2, “Diaminopyrimidine derivatives and processes for the preparation thereof” (YUHAN CORPORATION, priority 2011, dated 2018).
Counter-ions that a name gives are not always drawn.

Target: T1, human 5-HT4(a) (Homo sapiens, UniProt Q13639)
T1 construct: host or cells: GeneBlAzer HTR4-CRE-bla CHO-K1 cells
Assay: Evaluation of agonistic activity in CHO-K1 cells expressing human 5-HT4(a) (GeneBlAzer HTR4-CRE-bla CHO-K1, beta-lactamase reporter)
Type: cell-based
Conditions: CHO-K1 cells stably expressing human 5-HT4(a)
Procedure: Test Example 1: Evaluation of Agonistic Activity in CHO-K1 Cells Expressing Human 5-HT4(a)
As CHO-K1 cells stably expressing human 5-HT4(a), we used the GeneBlAzer HTR4-CRE-bla CHO-K1 cells (Invitrogen Corp.). The cells were cultured, under the condition of 37[…] and 5% CO2, in a DMEM supplemented with 10% fetal bovine serum (FBS), 25 mM HEPES (pH7.4), 600 μg/ml hygromycin B, 0.1 mM non-essential amino acids, 100 unit/ml penicillin and 100 μg/ml streptomycin. Subcultures were performed three times per one week, each being at less than 80% confluence. At the previous day before treating test compounds, the cells were collected using 0.5% trypsin/EDTA and then diluted with a DMEM supplemented with 1% FBS, 25 mM HEPES, and 0.1 mM non-essential amino acids into 3.125×10^5 cells/ml. 32 μl of the diluted cells were added into 384-well plate (10^4 cells per well) and then incubated overnight. After the overnight culture, 8 μl of the medium having 1% of DMSO was added into the cell-free control well and the non-stimulating control well, respectively. 8 μl of the respective test compound dilutions (which had been prepared by diluting by 100-times with the medium as mentioned in the above) having 1% of DMSO were added to the respective remaining wells. After being cultured in the incubator for 5 hours, the wells of the 384-plate were treated with the substrate solution (8 μl per well) prepared according to the vendor's instruction (i.e., Invitrogen's instruction), and then incubated in the dark room for additional two hours. Agonistic activities on 5-HT4 receptor were evaluated, on the basis of fluorescence values of the cleavage-products by beta-lactamase. After exciting to 410 nm of wavelength using a fluorescence detector (Genios Pro), we measured the fluorescence values at two emission wavelengths (first wavelength: 465 nm, second wavelength: 535 nm). Data were analyzed on the basis of the ratio of fluorescence intensities of each well at the respective wavelengths. Each EC50 value was calculated by non-linear regression analysis using the “GraphPad Prism” program, based on the activities according to 8-different concentrations of the test compounds.

T1 sequence (Q13639 1-387 isoform Q13639-2): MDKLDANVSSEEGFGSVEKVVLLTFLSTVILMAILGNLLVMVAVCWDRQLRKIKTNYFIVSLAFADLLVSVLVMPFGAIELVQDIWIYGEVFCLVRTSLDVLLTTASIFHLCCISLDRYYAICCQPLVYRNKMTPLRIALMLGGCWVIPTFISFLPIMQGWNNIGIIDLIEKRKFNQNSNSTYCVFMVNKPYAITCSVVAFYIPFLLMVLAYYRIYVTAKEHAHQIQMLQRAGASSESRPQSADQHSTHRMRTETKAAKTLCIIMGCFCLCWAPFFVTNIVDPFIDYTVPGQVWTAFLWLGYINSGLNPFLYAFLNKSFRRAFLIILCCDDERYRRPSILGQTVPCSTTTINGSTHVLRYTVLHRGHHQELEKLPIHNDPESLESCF

Row | SMILES | EC50 [nM]
1 | CCCc1cc(N2CC[C@H](NC(=O)CCC(C)=O)C2)nc(Nc2cccc(C#N)c2)n1 [Example 156, (S)-N-{1-[2-(3-cyanophenylamino)-6-propylpyrimidin-4-yl]pyrrolidin-3-yl}-4-oxopentanamide] | 0.219
2 | CCCc1cc(N2CCCC2C)nc(Nc2ccc3cc[nH]c3c2)n1 (stereo not drawn) [Example 190] | 0.05
3 | CCCc1cc(N2CC[C@H](NC(C)=O)C2)nc(Nc2ccc(C)c(O)c2)n1 [Example 274] | 0.087
4 | CCCc1cc(N2CC[C@H](NC(C)=O)C2)nc(Nc2ccc(C)c(F)c2)n1 [Example 282] | 0.103
5 | CCCc1cc(N2CC[C@H](NC(=O)Cc3ccc(F)cc3)C2)nc(Nc2cccc(C#N)c2)n1 [Example 67, (S)-N-{1-[2-(3-cyanophenylamino)-6-propylpyrimidin-4-yl]pyrrolidin-3-yl}-2-(4-fluorophenyl)acetamide] | 0.19
6 | CCCc1cc(N2CC[C@H](NC(C)=O)C2)nc(Nc2cc(N)cc(C#N)c2)n1 [Example 262] | 0.0039
7 | CCCc1cc(N2CCC[C@H]2C)nc(Nc2ccc(N)c(C(F)(F)F)c2)n1 [Example 323, (R)—N^1-[4-(2-methylpyrrolidin-1-yl)-6-propylpyrimidin-2-yl]-3-(trifluoromethyl)benzene-1,4-diamine] | 0.027
8 | CCCc1cc(N2CC[C@H](N)C2)nc(Nc2cc(N)cc(C(F)(F)F)c2)n1 [Example 342] | 0.0055
9 | CCCc1cc(N2CCC[C@H]2C)nc(Nc2ccc(N)c([N+](=O)[O-])c2)n1 [Example 328, (R)—N^1-[4-(2-methylpyrrolidin-1-yl)-6-propylpyrimidin-2-yl]-3-nitrobenzene-1,4-diamine] | 0.017
10 | CCCCc1cc(N2CC[C@H](NC(C)=O)C2)nc(Nc2ccc(N)c([N+](=O)[O-])c2)n1 [Example 337] | 0.0026
11 | CCCc1cc(N2CC[C@H](NC(C)=O)C2)nc(Nc2ccc(N)c(C(F)(F)F)c2)n1 [Example 261] | 0.0071
12 | CCCc1cc(N2CCC[C@H]2CO)nc(Nc2cccc([N+](=O)[O-])c2)n1 [Example 207] | 0.083
13 | CCCc1cc(N2CCC(NC)C2)nc(Nc2cccc(C#N)c2)n1 (stereo not drawn) [Example 59, 3-{4-[3-(methylamino)pyrrolidin-1-yl]-6-propylpyrimidin-2-ylamino}benzonitrile dihydrochloride] | 0.028
14 | CCCc1cc(N2CC[C@H](NC(C)C)C2)nc(Nc2cccc(C#N)c2)n1 [Example 138, (S)-3-{4-[3-(isopropylamino)pyrrolidin-1-yl]-6-propylpyrimidin-2-ylamino}benzonitrile] | 0.012
15 | CCCc1cc(N2CC[C@H](NC(C)=O)C2)nc(Nc2ccc(C)c(C(F)(F)F)c2)n1 [Example 280] | 0.026
16 | CCCc1cc(N2CC[C@H](CNC(=O)OC(C)(C)C)C2)nc(Nc2cccc(C#N)c2)n1 [Example 56, (R)-tert-butyl{1-[2-(3-cyanophenylamino)-6-propylpyrimidin-4-yl]pyrrolidin-3-yl}methylcarbamate] | 0.312
17 | CCCc1cc(N2CCC[C@H]2CO)nc(Nc2cccc(C#N)c2)n1 [Example 194, (S)-3-{4-[2-(hydroxymethyl)pyrrolidin-1-yl]-6-propylpyrimidin-2-ylamino}benzonitrile] | 0.2
18 | CCCc1cc(N2CC[C@H](NCCCSC)C2)nc(Nc2cccc(C#N)c2)n1 [Example 117, (S)-3-(4-{3-[3-(methylthio)propylamino]pyrrolidin-1-yl}-6-propylpyrimidin-2-ylamino)benzonitrile] | 0.014
19 | CCCc1cc(N2CC[C@H](NC)C2)nc(Nc2ccc(N)c(C(F)(F)F)c2)n1 [Example 123, (S)-N^1-{4-[3-(methylamino)pyrrolidin-1-yl]-6-propylpyrimidin-2-yl}-3-(trifluoromethyl)benzene-1,4-diamine dihydrochloride] | 0.0019
20 | CCCc1cc(N2CC[C@H](NC(CC)CC)C2)nc(Nc2cccc(C#N)c2)n1 [Example 128, (S)-3-{4-[3-(pentan-3-ylamino)pyrrolidin-1-yl]-6-propylpyrimidin-2-ylamino}benzonitrile] | 0.039

The next lines start with the values.

Row | EC50 [nM] | SMILES
21 | 0.414 | CCCc1cc(N2CCC[C@H]2CNC)nc(Nc2cccc(C#N)c2)n1 [Example 403]
22 | 0.0016 | CCCCc1cc(N2CC[C@H](NC)C2)nc(Nc2ccc(N)c(C(F)(F)F)c2)n1 [Example 453]
23 | 0.0021 | CCCCc1cc(N2CC[C@H](NCC)C2)nc(Nc2ccc(F)c([N+](=O)[O-])c2)n1 [Example 463]
24 | 0.027 | CCCc1cc(N2CCC[C@H]2COC)nc(Nc2ccc(F)c(N)c2)n1 [Example 365]
25 | 0.01 | CCCc1cc(N2CC[C@H](N)C2)nc(Nc2ccc(F)c(C#N)c2)n1 [Example 353, (S)-5-[4-(3-aminopyrrolidin-1-yl)-6-propylpyrimidin-2-ylamino]-2-fluorobenzonitrile dihydrochloride]
26 | 0.0093 | CCCc1cc(N2CC[C@H](NC(=O)CO)C2)nc(Nc2ccc(C)c(C(F)(F)F)c2)n1 [Example 481]
27 | 0.0051 | CCCc1cc(N2CC[C@H](NCc3ccc(O)cc3)C2)nc(Nc2ccc(C)c(C#N)c2)n1 [Example 417]
28 | 0.027 | CCCc1cc(N2CC[C@H](NC(=O)Cc3cccs3)C2)nc(Nc2ccc(C)c(C#N)c2)n1 [Example 430]
29 | 0.0019 | CCCCc1cc(N2CC[C@H](NCC)C2)nc(Nc2ccc(N)c([N+](=O)[O-])c2)n1 [Example 461]
30 | 0.0029 | CCCc1cc(N2CC[C@H](NC3CCCC3)C2)nc(Nc2ccc(C)c(C#N)c2)n1 [Example 420]
31 | 0.0035 | CCCc1cc(N2CC[C@H](N)C2)nc(Nc2ccc(C)c([N+](=O)[O-])c2)n1 [Example 351, (S)-4-(3-aminopyrrolidin-1-yl)-N-(4-methyl-3-nitrophenyl)-6-propylpyrimidin-2-amine dihydrochloride]
32 | 0.015 | CCCc1cc(N2CC[C@H](NCCCSC)C2)nc(Nc2ccc(C)c(C#N)c2)n1 [Example 415]
33 | 0.0013 | CCCc1cc(N2CC[C@H](NCC3CC3)C2)nc(Nc2ccc(C)c(C#N)c2)n1 [Example 377, (S)-5-{4-[3-(cyclopropylmethylamino)pyrrolidin-1-yl]-6-propylpyrimidin-2-ylamino}-2-methylbenzonitrile]
34 | 0.0065 | CCCc1cc(N2CC[C@H](N)C2)nc(Nc2ccc(F)c(C(F)(F)F)c2)n1 [Example 357, (S)-4-(3-aminopyrrolidin-1-yl)-N-[4-fluoro-3-(trifluoromethyl)phenyl]-6-propylpyrimidin-2-amine dihydrochloride]
35 | 0.055 | CCCc1cc(N2CC[C@H](NC(=O)NCC)C2)nc(Nc2ccc(C)c(C#N)c2)n1 [Example 433]
36 | 0.122 | CCCc1cc(N2CCC[C@H]2COC)nc(Nc2cccc(N)c2)n1 [Example 364]
37 | 0.0032 | CCCc1cc(N2CC[C@H](NC3CCC3)C2)nc(Nc2ccc(C)c(C#N)c2)n1 [Example 419]
38 | 0.153 | CCCc1cc(N2CCC[C@H]2COC)nc(Nc2ccc(OC)c(N)c2)n1 [Example 367, (S)-4-methoxy-N^1-{4-[2-(methoxymethyl)pyrrolidin-1-yl]-6-propylpyrimidin-2-yl}benzene-1,3-diamine]
39 | 0.0033 | CCCc1cc(N2CC[C@H](NCC3CC3)C2)nc(Nc2cccc([N+](=O)[O-])c2)n1 [Example 375, (S)-4-[3-(cyclopropylmethylamino)pyrrolidin-1-yl]-N-(3-nitrophenyl)-6-propylpyrimidin-2-amine]
40 | 0.015 | CCCCc1cc(N2CC[C@H](NC(C)=O)C2)nc(Nc2ccc(Cl)c([N+](=O)[O-])c2)n1 [Example 438]
41 | 0.0048 | CCCc1cc(N2CC[C@H](NC)C2)nc(Nc2ccc(F)c(C(F)(F)F)c2)n1 [Example 490]
42 | 0.066 | CCCc1cc(N2CC[C@H](NC(=O)Cc3cccnc3)C2)nc(Nc2ccc(C)c(C#N)c2)n1 [Example 428]
43 | 0.0051 | CCCc1cc(N2CC[C@H](NCC3CC3)C2)nc(Nc2ccc(F)c(C(F)(F)F)c2)n1 [Example 382]
44 | 0.0021 | CCCCc1cc(N2CC[C@H](NCC)C2)nc(Nc2ccc(F)c(C#N)c2)n1 [Example 469]
45 | 0.0021 | CCCc1cc(N2CC[C@H](N)C2)nc(Nc2ccc(N)c([N+](=O)[O-])c2)n1 [Example 359]
46 | 0.082 | CCCc1cc(N2CC[C@H](NC(=O)CN)C2)nc(Nc2cccc(C#N)c2)n1 [Example 395]
47 | 0.0022 | CCCc1cc(N2CC[C@H](NC(C)C)C2)nc(Nc2ccc(C)c(C#N)c2)n1 [Example 418, (S)-5-{4-[3-(isopropylamino)pyrrolidin-1-yl]-6-propylpyrimidin-2-ylamino]-2-methylbenzonitrile]
48 | 0.019 | CCCCc1cc(N2CC[C@H](NC(C)=O)C2)nc(Nc2ccc(C)c(C#N)c2)n1 [Example 492, (S)-N-{1-[6-butyl-2-(3-cyano-4-methylphenylamino)pyrimidin-4-yl]pyrrolidin-3-yl}acetamide hydrochloride]
